Reference: patent US20040038369A1, “Airway-specific trypsin-like enzymes and method of using the same” (priority 2000, published 2004)

What was measured:
[1] = system: EGF on surface of H292 cell membrane; assay: Surface antigen analysis (FACS) of EGF on NCI-H292 cell membrane; format: cell-based, human; conditions: HAST 300 mU/mL + inhibitor (leupeptin 10 μM, BB1101 5 μM); PBS 10.79, HAST alone 8.33
Method: (§1) NCI-H292 cells (purchased from ATCC) were cultured on a 10 cm dish in 10% FCS-containing RPMI-1640 until to reach a confluent state, subjected to the replacement of the culture medium by RPMI-1640 containing 0.1% of BSA, and further cultured for 24 hours. The cultured cells were washed with PBS, treated and floated in PBS containing 5 mM of EDTA at 37° C. for five minutes, and then suspended in 0.1%BSA-containing RPMI-1640 in a density of 1.0×10^7 cells/mL.
(§2) The above-described cell suspension and 0.1% BSA-containing RPMI-1640 containing HAST in a double concentration (600 mU/mL) were mixed with each other in equivalent amounts, respectively, and reacted with each other at 37° C. for 30 minutes (final cell concentration: 5.0×10^6 cells/mL, final HAST concentration: 300 mU/mL). The reaction solution was mixed with ice-cooled 1% FCS-containing PBS in a volume of 5 times that of the reaction solution to stop the reaction, and the treated solution was then supplied for a surface antigen analysis.
(§3) The cells subjected to the prescribed treatments were suspended in 1% FCS-containing PBS in a density of 1.0×10^7 cells/mL. 100 μL of the prepared cell suspension was mixed with a primary antigen (EGF back ground dyeing: 1 μg of normal mouse IgG1 (produced by R & D Corp.), EGF dyeing: 1 μg of an anti-EGF mouse monoclonal antibody (produced by R & D Corp.), HB-EGF back ground dyeing: free from the primary antigen, HB-EGF dyeing: 2 μg of an anti-HB-EGF goat polyclonal antibody (produced by R & D Corp.)) and reacted on ice for 30 minutes. The reaction product was once washed with 5 mL of 1% FCS-containing PBS, mixed with 2 μg of a secondary antigen (EGF back ground dyeing and EGF dyeing: FITC conjugated F(ab′)2 fragment to mouse IgG (produced by Dako Corp.), HB-EGF back ground dyeing and HB-EGF dyeing: Swine Anti-Goat Ig's Fluorescein Conjugate (produced by KPL Corp.)), and then reacted on ice for 30 minutes. The reaction solution was once washed with 5 mL of 1% FCS-containing PBS, and then mixed with Cell Fix (produced by Becton Dickinson Corp.) to immobilize the cells. The expression of the surface antigen was assayed with FACS Calibur (produced by Becton Dickinson Corp.) and analyzed with Cell Quest (produced by Becton Dickinson Corp.). Average fluorescence intensities were shown in the next table as the indicators of expression intensities.
(§4) HAST (600 mU/mL) was reacted with leupeptin (10 μM) or BB1101 (5 μM) in 0.1% BSA-containing RPMI-1640 on ice for 30 minutes, and the reaction solution was mixed with the equivalent amount of a cell suspension preliminarily treated with leupeptin (10 μM) or BB1101 (5 μM) at 37° C. for 30 minutes, and further treated at 37° C. for 30 minutes (final HAST concentration: 300 mU/mL, final leupeptin concentration: 10 μM, final BB1101 concentration: 5 μM, final cell concentration: 5.0×10^6 cells/mL). The reaction solution was mixed with ice-cooled 1% FCS-containing PBS in an amount of five times that of the reaction solution to stop the reaction, and then supplied for the surface antigen analysis.
(§5) The cells subjected to the prescribed treatments were suspended in 1% FCS-containing PBS in a density of 1.0×10^7 cells/mL. […]

[2] = system: HB-EGF on surface of H292 cell membrane; assay: Surface antigen analysis (FACS) of HB-EGF on NCI-H292 cell membrane; format: cell-based, human; conditions: HAST 300 mU/mL + inhibitor (leupeptin 10 μM, BB1101 5 μM); PBS 8.61, HAST alone 6.26
Method: as §1, §2, §3, §4, §5

PAR-1 = biological target: T1, PAR-1 (Homo sapiens, UniProt P25116); assay: Calcium influx in PAR-1-expressing insect cells; format: cell-based; conditions: AST 2 units/mL; trypsin, thrombin 0.1 to 10 units/mL; SFLLRNamide 10 to 100 μM
T1 construct: expressed in transfected cells; host or cells: Sf9 insect cells infected with recombinant baculovirus VL-PAR (pVL1393)
T1 sequence (P25116 22-425): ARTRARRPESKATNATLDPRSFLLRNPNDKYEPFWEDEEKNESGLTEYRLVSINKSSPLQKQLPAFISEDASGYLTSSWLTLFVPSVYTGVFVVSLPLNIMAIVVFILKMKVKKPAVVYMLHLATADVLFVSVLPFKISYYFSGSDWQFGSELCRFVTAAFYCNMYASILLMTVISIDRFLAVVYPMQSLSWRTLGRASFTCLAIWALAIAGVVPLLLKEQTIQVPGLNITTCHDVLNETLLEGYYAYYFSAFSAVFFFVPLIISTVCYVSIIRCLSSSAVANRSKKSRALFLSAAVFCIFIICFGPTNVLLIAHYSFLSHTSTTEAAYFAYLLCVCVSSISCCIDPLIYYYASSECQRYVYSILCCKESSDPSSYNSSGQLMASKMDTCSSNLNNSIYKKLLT

PAR-2 = biological target: T2, PAR-2 (Homo sapiens, UniProt P55085); assay: Calcium influx in PAR-2-expressing insect cells; format: cell-based; conditions: AST 2 units/mL; trypsin, thrombin 0.1 to 10 units/mL; SFLLRNamide, SLIGRL 10 to 100 μM
T2 construct: expressed in transfected cells; host or cells: Sf9 insect cells infected with recombinant baculovirus VL-PAR (pVL1393)
T2 sequence (P55085 26-397): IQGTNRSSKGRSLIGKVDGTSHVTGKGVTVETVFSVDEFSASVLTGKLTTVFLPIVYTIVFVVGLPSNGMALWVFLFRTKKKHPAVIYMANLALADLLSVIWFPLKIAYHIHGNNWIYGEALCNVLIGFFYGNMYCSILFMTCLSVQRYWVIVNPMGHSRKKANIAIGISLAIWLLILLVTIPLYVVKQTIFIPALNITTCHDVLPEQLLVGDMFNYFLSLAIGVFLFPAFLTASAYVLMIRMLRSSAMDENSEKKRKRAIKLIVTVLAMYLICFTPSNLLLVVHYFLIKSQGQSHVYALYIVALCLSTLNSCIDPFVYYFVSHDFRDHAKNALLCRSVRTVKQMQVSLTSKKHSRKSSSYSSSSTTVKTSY
Method: (§6) The above-obtained recombinant baculovirus VL-PAR for expressing the PAR was used to infect 1.0×10^7 Sf9 cells sowed on a 75 cm^2 flask at an MOI=2, and was then left and stationally cultured at 27° C. for 40 hours. After the culture, the infected cells were recovered and then subjected to a calcium influx experiment to-confirm the function of the PAR.
(§7) The recovered infected cells (about 5×10^6 cells) were once washed with HEPES-Tyrode buffer solution-Ca^2+ (−) pH 7.4, and then suspended in 5 mL of HEPES-Tyrode buffer solution (containing Fura2-AM, 1 μg/mL) to load the Fura2-AM on the cells at 27° C. for 30 minutes. The suspension was centrifuged at 800 rpm at room temperature for 5 minutes to recover the cells. The cells were twice washed with HEPES-Tyrode buffer solution-Ca^2+ (−) pH 7.4 and then resuspended in 5 mL of HEPES-Tyrode buffer solution-Ca^2+ (−) pH 7.4. The cell suspension was mixed with 5 μL of 1M CaCl2 to give a final concentration of 1 mM CaCl2, and then incubated in a shaded state at room temperature for 5 minutes. The prepared Fura2-AM-loaded infected cells were dispensed into a 96 well plate in a volume of 100 μL/well, further subjected to the dispensation of HEPES-Tyrode buffer solution-C^2+ (+) pH 7.4 in a volume of 80 μL/well, and then assayed with a Fluorescence Drug Screening System (made by Hamamatsu Photonics Co.). Namely, [intensity of 500 nm fluorescent light due to 340 nm exciting light]/[intensity of 500 nm fluorescent light due to 380 nm exciting light] (reflecting the concentration of calcium in the cells) was assayed.

PAR-4 = biological target: T3, PAR-4 (Homo sapiens, UniProt Q96RI0); assay: Calcium influx in PAR-4-expressing insect cells; format: cell-based; conditions: AST 2 units/ml; trypsin, thrombin 0.1 to 10 units/mL
T3 construct: expressed in transfected cells; host or cells: Sf9 insect cells infected with recombinant baculovirus VL-PAR (pVL1393)
T3 sequence (Q96RI0 18-385): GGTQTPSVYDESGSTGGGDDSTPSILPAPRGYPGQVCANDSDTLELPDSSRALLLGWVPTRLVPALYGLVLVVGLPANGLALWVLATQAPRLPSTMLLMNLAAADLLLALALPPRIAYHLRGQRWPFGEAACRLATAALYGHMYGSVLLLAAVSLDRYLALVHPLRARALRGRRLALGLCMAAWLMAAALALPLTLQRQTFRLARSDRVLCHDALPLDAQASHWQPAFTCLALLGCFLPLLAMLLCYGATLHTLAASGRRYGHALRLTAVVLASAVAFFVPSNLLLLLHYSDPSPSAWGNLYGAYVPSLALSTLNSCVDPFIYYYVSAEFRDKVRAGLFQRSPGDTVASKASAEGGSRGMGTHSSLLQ
Method: as §6
as §7, with “Namely, [intensity of 500 nm fluorescent light due to 340 nm exciting light]/[intensity of 500 nm fluorescent light due to 380 nm exciting light] (reflecting the concentration of calcium in the cells) was assayed.” left out

NCI-H292 cells = assay: AB-PAS staining of mucus glycoprotein in NCI-H292 cells; format: cell-based, human; conditions: FIG. 1 and 2
Method: NCI-H292 cells (human pulmonary mucoepidermoid tumor cell strain, purchased from ATCC) were suspended in 10% FCS (Fetal Calf Serum)-containing RPMI-1640 (produced by Gibco Corp.), sowed on a Lab-Tek 8 well chamber slide (produced by Nunc Corp.) in a density of 6.0×10^4 cells/cm^2, cultured for 72 hours, subjected to the replacement of the culture solution by RPMI-1640 containing 0.1% of BSA, and further cultured for 24 hours.
On the day of the treatment, the culture solution of each well was replaced by RPMI-1640 (containing 0.1% BSA) containing EGF (5 ng/mL, produced by Becton Dickinson Corp.), HB-EGF (5 ng/mL, produced by R & D Corp.), TGF-α (5 ng/mL, produced by Peprotech Corp.), or PBS to start the treatment. Then, the cells were incubated at 37° C. for 24 hours.
After the prescribed 24 hours treatment, the culture supernatant was removed. The residue was once washed with PBS, mixed with 4% paraformaldehyde/PBS, and then allowed to stand at room temperature for one hour to immobilize the cells. The immobilized cells were twice washed with Milli Q water and then stained with AB-PAS. The staining was carried out according to a book (“All of new dyeing methods” p136-150 (Iyaku Shuppansha)). After staining, the cells were sequentially immersed in 70, 80, and 100% ethanol for five minutes, respectively, to remove water, sealed in an Aquatex (produced by Merck Corp.), and then subjected to the observation of the staining image with an optical microscope. From the results, it was clarified that all of HAST, TGF-α, EGF, and HB-EGF promoted the production of the mucus glycoprotein.
NCI-H292 cells (purchased from ATCC) were suspended in 10% FCS-containing RPMI-1640 (produced by Gibco Corp.), sowed on a Lab-Tek 8 well chamber slide (produced by Nunc Corp.) in a density of 6.0×10^4 cells/cm^2, cultured for 72 hours, subjected to the replacement of the culture solution by RPMI-1640 containing 0.1% of BSA, and further cultured for 24 hours. […]

Compound | EGF expression intensity on the surfaces of the cell membranes (average fluorescence intensity) [1] | HB-EGF expression intensity on the surfaces of the cell membranes (average fluorescence intensity) [2] | Ca2+ influx (PAR-2) | production of the mucus glycoprotein (NCI-H292 cells) | further results
CC(=O)N[C@@H](CC(C)C)C(=O)N[C@@H](CC(C)C)C(=O)N[C@H](C=O)CCCNC(=N)N [leupeptin, reference compound] | 10.18 | 7.3 |  |  | 
thrombin [reference compound] |  |  | observed |  | Ca2+ influx (PAR-1): observed; Ca2+ influx (PAR-4): observed
HB-EGF: Heparin-binding EGF-like Growth Factor, EGFR ligand, produced by R & D Corp. [reference compound] |  |  |  | promoted | 
TGF-α: Transforming Growth Factor-α, EGFR ligand, produced by Peprotech Corp. [reference compound] |  |  |  | promoted | 
SLIGRL [agonist peptide for PAR-2] |  |  | observed |  | 
C=CC[C@H](C(=O)NO)[C@@H](CC(C)C)C(=O)N[C@@H](Cc1ccccc1)C(=O)NC [BB01, reference compound] | 7.49 | 6.65 |  |  | 
